Test results as given in patent US9617256B2 (priority 2007, dated 2017).
≈ marks a conversion by molar mass, not a printed value.

Experiments:
AECO001 HSA AGP = assay: MIC broth microdilution, AECO001 HSA AGP; type: cell-based, E. coli; conditions: Escherichia coli
Summary of the method: (§1)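 Strains were grown overnight at 35° C. on Mueller-Hinton agar, suspended to 0.5 McFarland and diluted to a final 3×10^5–7×10^5 CFU/mL. They were then exposed to 2-fold serial drug dilutions in cation-adjusted Mueller-Hinton broth and incubated 18-24 hours at 35° C.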

[1] = system: ASAU001 (laboratory strain of S. aureus, ATCC29213); assay: MIC broth microdilution, ASAU001; type: cell-based; conditions: Staphylococcus aureus, ATCC29213, read-out: MIC ASAU001
Summary of the method: as §1

AECO001 (ATCC25922) = assay: MIC broth microdilution, AECO001; type: cell-based, E. coli; conditions: Escherichia coli, ATCC25922, read-out: MIC AECO001
Summary of the method: as §1

[2] = system: APAE006 in the presence of 8 micrograms per milliliter of polymyxin B nonapeptide; type: cell-based, P. aeruginosa; conditions: in the presence of 8 micrograms per milliliter of polymyxin B nonapeptide
Summary of the method: (§2)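 (ambient air) in cation-adjusted MHB; inoculum from 0.5 McFarland suspensions, final 3×10^5–7×10^5 CFU/mL; 2-fold serial drug dilutions per CLSI. APAE006: P. aeruginosa with all efflux pumps inactivated.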

APAE001 (ATCC27853) = assay: MIC broth microdilution, APAE001; type: cell-based, P. aeruginosa; conditions: Pseudomonas aeruginosa, ATCC27853, read-out: MIC APAE001, APAE001 is ATCC27853
Summary of the method: as §1

[3] = system: AECO063 (ATCC25922 bearing an acrAB mutation); assay: microbe, parasite or virus in culture; type: cell-based, E. coli; conditions: Escherichia coli, ATCC25922, read-out: MIC AECO063
Summary of the method: as §1

[4] = system: AABA1060 (clinical isolate of Acinetobacter baumannii); assay: MIC broth microdilution, AABA1060; type: cell-based; conditions: Acinetobacter baumannii, read-out: MIC AABA1060
Summary of the method: as §1

[5] = system: APAE006 (strain of P. aeruginosa in which all efflux pumps are inactivated); assay: microbe, parasite or virus in culture; type: cell-based; conditions: Pseudomonas aeruginosa, read-out: MIC APAE006, P. aeruginosa, all efflux pumps inactivated
Summary of the method: as §2

SMILES | MIC (AECO001 HSA AGP) | MIC [1] | MIC (AECO001 (ATCC25922)) | MIC APAE006 + PMBN [2] | MIC (APAE001 (ATCC27853)) | MIC [3] | MIC [4] | MIC [5]
CC(C)C(C(=O)NO)C(=O)Nc1ccc(C#Cc2ccc(CN3CCOCC3)cc2)cc1 (stereo not shown) [Example 60-5, N-Hydroxy-2-isopropyl-N′-[4-(4-morpholin-4-ylmethyl-phenylethynyl)-phenyl]-malonamide] | > 64 µg/mL | > 64 µg/mL | 16 to 64 µg/mL (≈ 36.7 to 147 µM) | B (MIC's of greater than 2.0 μg/mL to 16.0 μg/mL = B) | > 64 µg/mL | 16 to 64 µg/mL (≈ 36.7 to 147 µM) | > 64 µg/mL | 16 to 64 µg/mL (≈ 36.7 to 147 µM)
CCOCc1ccc(C#Cc2ccc(C(=O)N[C@H](C(=O)NO)[C@@H](C)N)cc2)cc1 [Example 120-1, N-((1S,2R)-2-Amino-1-hydroxycarbamoyl-propyl)-4-(4-ethoxymethyl-phenylethynyl)-benzamide] | 2 to 16 µg/mL (≈ 5.06 to 40.5 µM) | 16 to 64 µg/mL (≈ 40.5 to 162 µM) | < 2 µg/mL | A (MIC's of 2.0 μg/mL or less = A) | < 2 µg/mL | < 2 µg/mL | 2 to 16 µg/mL (≈ 5.06 to 40.5 µM) | < 2 µg/mL
NC[C@H](NC(=O)c1ccc(/C=C/C#Cc2ccc(CNC3CC3)cc2)cc1)C(=O)NO [Example 113-1] | 2 to 16 µg/mL (≈ 4.78 to 38.2 µM) | > 64 µg/mL | < 2 µg/mL | A (MIC's of 2.0 μg/mL or less = A) | 2 to 16 µg/mL (≈ 4.78 to 38.2 µM) | < 2 µg/mL | 16 to 64 µg/mL (≈ 38.2 to 153 µM) | < 2 µg/mL
C[C@@H](N)[C@H](NC(=O)c1ccc(/C=C/C#Cc2ccc(CNC3CC3)cc2)cc1)C(=O)NO [Example 113-2] | 2 to 16 µg/mL (≈ 4.62 to 37 µM) | > 64 µg/mL | < 2 µg/mL | A (MIC's of 2.0 μg/mL or less = A) | < 2 µg/mL | < 2 µg/mL | 2 to 16 µg/mL (≈ 4.62 to 37 µM) | < 2 µg/mL
CN(C)CC(=O)NC[C@H](NC(=O)c1ccc(/C=C/C#Cc2ccc(CN3CCOCC3)cc2)cc1)C(=O)NO [Example 111-2] | 2 to 16 µg/mL (≈ 3.75 to 30 µM) | 16 to 64 µg/mL (≈ 30 to 120 µM) | 2 to 16 µg/mL (≈ 3.75 to 30 µM) | A (MIC's of 2.0 μg/mL or less = A) | 2 to 16 µg/mL (≈ 3.75 to 30 µM) | < 2 µg/mL | 2 to 16 µg/mL (≈ 3.75 to 30 µM) | < 2 µg/mL
C[C@@H](N)[C@H](NC(=O)c1ccc(C#Cc2cncnc2)cc1)C(=O)NO [Example 133-7] | 2 to 16 µg/mL (≈ 5.89 to 47.1 µM) | 2 to 16 µg/mL (≈ 5.89 to 47.1 µM) | < 2 µg/mL | A (MIC's of 2.0 μg/mL or less = A) | < 2 µg/mL | < 2 µg/mL | < 2 µg/mL | < 2 µg/mL
CC(C)(O)[C@H](NC(=O)c1ccc(C#CC#Cc2ccccc2)cc1)C(=O)NO [Example 82-13] | < 2 µg/mL | 16 to 64 µg/mL (≈ 42.5 to 170 µM) | < 2 µg/mL | A (MIC's of 2.0 μg/mL or less = A) | < 2 µg/mL | < 2 µg/mL | < 2 µg/mL | < 2 µg/mL
C[C@@H](N)[C@H](NC(=O)c1ccc(C#Cc2ccc(CN)cc2)cc1)C(=O)NO [Example 131-1, N-((1S,2R)-2-Amino-1-hydroxycarbamoyl-propyl)-4-(4-aminomethyl-phenylethynyl)-benzamide] | > 64 µg/mL | > 64 µg/mL | 16 to 64 µg/mL (≈ 43.7 to 175 µM) | A (MIC's of 2.0 μg/mL or less = A) | 2 to 16 µg/mL (≈ 5.46 to 43.7 µM) | 16 to 64 µg/mL (≈ 43.7 to 175 µM) | > 64 µg/mL | < 2 µg/mL
COC(=O)[C@@H](NC(=O)c1ccc(C#C/C(F)=C/c2ccc(CN3CCOCC3)cc2)cc1)[C@@H](C)O [Example 109-2, (2S,3R)-methyl 2-(4-((Z)-3-fluoro-4-(4-(morpholinomethyl)phenyl)but-3-en-1-ynyl)benzamido)-3-hydroxybutanoate] | 2 to 16 µg/mL (≈ 4.16 to 33.3 µM) | 16 to 64 µg/mL (≈ 33.3 to 133 µM) | < 2 µg/mL | A (MIC's of 2.0 μg/mL or less = A) | 2 to 16 µg/mL (≈ 4.16 to 33.3 µM) | < 2 µg/mL | 2 to 16 µg/mL (≈ 4.16 to 33.3 µM) | < 2 µg/mL
C[C@@H](NCC(=O)NC[C@H](NC(=O)c1ccc(C#C/C=C/c2ccccc2)cc1)C(=O)NO)c1ccccc1 [Example 105-4] | 2 to 16 µg/mL (≈ 3.92 to 31.3 µM) | 16 to 64 µg/mL (≈ 31.3 to 125 µM) | < 2 µg/mL | A (MIC's of 2.0 μg/mL or less = A) | 16 to 64 µg/mL (≈ 31.3 to 125 µM) | < 2 µg/mL | 16 to 64 µg/mL (≈ 31.3 to 125 µM) | 2 to 16 µg/mL (≈ 3.92 to 31.3 µM)
NC[C@H](NC(=O)c1ccc(C#C/C=C/c2ccc(CNC3CC3)cc2)cc1)C(=O)NO [Example 102-3] | 2 to 16 µg/mL (≈ 4.78 to 38.2 µM) | 16 to 64 µg/mL (≈ 38.2 to 153 µM) | < 2 µg/mL | A (MIC's of 2.0 μg/mL or less = A) | < 2 µg/mL | < 2 µg/mL | 16 to 64 µg/mL (≈ 38.2 to 153 µM) | < 2 µg/mL
